Experimental data from patent US7425640B2, “Substituted 5-carboxyamide pyrazoles and [1,2,4]triazoles as antiviral agents” (priority 2004, dated 2008).

Each compound was assayed against HCV RNA-dependent RNA polymerase NS5B (Δ21) (Hepatitis C virus genotype 1b, UniProt P26663) (assay: Assay for HCV RNA-dependent RNA polymerase activity (SPA, [3H]-GTP incorporation)). Conditions: read-out: Δ21 Activity (IC50 μM); 50 nM NS5B (Δ21), class symbols.
Format: biochemical
In short: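 NS5B (Δ21), 50 nM, was incubated 3 h at room temperature with biotinylated oligoG12/polyC template, 5 μM GTP plus [3H]-GTP, in HEPES pH 7.3 with MgCl2 and NaCl. [3H]-GTP incorporation was read by streptavidin SPA. IC50 came from single experiments across 11 two-fold dilutions (0.05–50 μM).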

HCV RNA-dependent RNA polymerase NS5B (Δ21), sequence (P26663 2420-2989, stated change not applied): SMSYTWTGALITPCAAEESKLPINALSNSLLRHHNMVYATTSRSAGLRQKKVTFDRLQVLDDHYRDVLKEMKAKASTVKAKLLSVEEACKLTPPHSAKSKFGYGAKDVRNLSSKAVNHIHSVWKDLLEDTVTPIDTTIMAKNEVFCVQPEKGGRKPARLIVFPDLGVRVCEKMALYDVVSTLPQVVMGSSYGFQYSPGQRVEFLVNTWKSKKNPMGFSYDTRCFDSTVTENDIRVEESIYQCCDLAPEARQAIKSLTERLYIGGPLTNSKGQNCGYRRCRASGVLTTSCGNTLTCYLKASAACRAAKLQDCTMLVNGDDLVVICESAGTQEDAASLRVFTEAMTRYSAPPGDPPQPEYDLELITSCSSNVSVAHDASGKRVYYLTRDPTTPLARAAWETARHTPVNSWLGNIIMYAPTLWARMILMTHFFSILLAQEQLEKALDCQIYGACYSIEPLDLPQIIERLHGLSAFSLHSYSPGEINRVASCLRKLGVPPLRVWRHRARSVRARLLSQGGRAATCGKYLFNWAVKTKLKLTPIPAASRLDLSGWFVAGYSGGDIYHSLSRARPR

Compound	IC50 [µM]
NC(=O)c1cc(C(=O)N[C@H]2CCCC[C@@H]2OCc2ccccc2)n(CC(=O)N[C@H]2CCCC[C@@H]2OCc2ccccc2)n1 [Compound 157]	0.1 to 1
Nc1c(C(=O)O)nn(CC(=O)N[C@H]2CCCC[C@@H]2OCc2ccccc2)c1C(=O)N[C@H]1CCCC[C@@H]1OCc1ccccc1 [Compound 147]	0.1 to 1
O=C(Cn1nc(NS(=O)(=O)c2ccc(F)cc2Cl)cc1C(=O)N[C@H]1CCCC[C@@H]1OCc1ccccc1)N[C@H]1CCCC[C@@H]1OCc1ccccc1 [Compound 71]	0.1 to 1
CNC(=O)Nc1cc(C(=O)N[C@H]2CCCC[C@@H]2OCc2ccccc2)n(CC(=O)N[C@H]2CCCC[C@@H]2OCc2ccccc2)n1 [Compound 135]	0.1 to 1
Cc1c(Cl)cccc1S(=O)(=O)Nc1cc(C(=O)N[C@H]2CCCC[C@@H]2OCc2ccccc2)n(CC(=O)N[C@H]2CCCC[C@@H]2OCc2ccccc2)n1 [Compound 67]	0.1 to 1
CC(C)(C)c1ccc(S(=O)(=O)Nc2cc(C(=O)N[C@H]3CCCC[C@@H]3OCc3ccccc3)n(CC(=O)N[C@H]3CCCC[C@@H]3OCc3ccccc3)n2)cc1 [Compound 87]	0.1 to 1
O=C(Cn1nc(C(=O)NCCc2ccccc2Cl)cc1C(=O)N[C@H]1CCCC[C@@H]1OCc1ccccc1)N[C@H]1CCCC[C@@H]1OCc1ccccc1 [Compound 103]	0.1 to 1
CC(C)(C)OC(=O)CNC(=O)c1cc(C(=O)N[C@H]2CCCC[C@@H]2OCc2ccccc2)n(CC(=O)N[C@H]2CCCC[C@@H]2OCc2ccccc2)n1 [Compound 105]	0.1 to 1
CC(=O)Nc1ccc(S(=O)(=O)Nc2cc(C(=O)N[C@H]3CCCC[C@@H]3OCc3ccccc3)n(CC(=O)N[C@H]3CCCC[C@@H]3OCc3ccccc3)n2)cc1 [Compound 82]	0.1 to 1
CC(C)NC(=O)Nc1cc(C(=O)N[C@H]2CCCC[C@@H]2OCc2ccccc2)n(CC(=O)N[C@H]2CCCC[C@@H]2OCc2ccccc2)n1 [Compound 167]	0.1 to 1
COC(=O)CCCCCNC(=O)c1cc(C(=O)N[C@H]2CCCC[C@@H]2OCc2ccccc2)n(CC(=O)N[C@H]2CCCC[C@@H]2OCc2ccccc2)n1 [Compound 149]	0.1 to 1
CCCCNC(=O)Nc1cc(C(=O)N[C@H]2CCCC[C@@H]2OCc2ccccc2)n(CC(=O)N[C@H]2CCCC[C@@H]2OCc2ccccc2)n1 [Compound 124]	0.1 to 1

Same assay, conditions: Δ21 Activity (IC50 μM), 50 nM NS5B (Δ21), class symbols

Compound	IC50 [µM]
O=C(Cn1nc(C(=O)O)cc1C(=O)N[C@H]1CCCC[C@@H]1OCc1ccccc1)Nc1ccc2c(c1)OCO2 [Compound 185]	> 1
CC(C)(C)OC(=O)Nc1cc(C(=O)N[C@H]2CCCC[C@@H]2OCc2ccccc2)n(CC(=O)N[C@H]2CCCC[C@@H]2OCc2ccccc2)n1 [Compound 172]	> 1
N#Cc1ccc(S(=O)(=O)Nc2cc(C(=O)N[C@H]3CCCC[C@@H]3OCc3ccccc3)n(CC(=O)N[C@H]3CCCC[C@@H]3OCc3ccccc3)n2)cc1 [Compound 42]	0.05 to 0.1
Cc1ccc(OCC2CCC2)c(NC(=O)Cn2nc(C(=O)O)cc2C(=O)N[C@H]2CCCC[C@@H]2OCc2ccccc2)c1 [Compound 43]	0.05 to 0.1
O=C(Cn1nc(C(=O)Nc2nnn[nH]2)cc1C(=O)Nc1ccccc1OCc1ccccc1)N[C@H]1CCCC[C@@H]1OCc1ccccc1 [Compound 20]	0.05 to 0.1
O=C(Cn1nc(C(=O)NCc2cccc3ccccc23)cc1C(=O)N[C@H]1CCCC[C@@H]1OCc1ccccc1)N[C@H]1CCCC[C@@H]1OCc1ccccc1 [Compound 22]	0.05 to 0.1
O=C(Cn1nc(NS(=O)(=O)c2ccc3ccccc3c2)cc1C(=O)N[C@H]1CCCC[C@@H]1OCc1ccccc1)N[C@H]1CCCC[C@@H]1OCc1ccccc1 [Compound 33]	0.05 to 0.1
Cc1ccc(OCC2CCC2)c(NC(=O)c2cc(C(=O)O)nn2CC(=O)N[C@H]2CCCC[C@@H]2OCc2ccccc2)c1 [Compound 9]	< 0.05
O=C(Cn1nc(NS(=O)(=O)c2ccc(C(F)(F)F)cc2)cc1C(=O)N[C@H]1CCCC[C@@H]1OCc1ccccc1)N[C@H]1CCCC[C@@H]1OCc1ccccc1 [Compound 47]	0.05 to 0.1

Same assay, conditions: Δ21 Activity (IC50 μM), 50 nM NS5B (Δ21), numeric values

Compound	IC50 [µM]
O=C(Cn1nc(C(=O)O)cc1C(=O)Nc1cc(Cl)ccc1OCC1CCCCC1)N[C@H]1CCCC[C@@H]1OCc1ccccc1 [drawing 242]	0.02
